Measurements as given in patent US10208056B2, “Condensed tricyclic compounds as protein kinase inhibitors” (FUNDACIÓN DEL SECTOR PÚBLICO ESTATAL CENTRO NACIONAL DE …, priority 2015, dated 2019).

Legend:
SW620 cells = assay: Colony formation assay; format: cell-based, human; details: SW620 cells treated 11 days
Description: The in vitro potency of the compounds was measured by colony formation assays. SW620 cells in logarithmic growth phase are plated at 800 cells per well in 6-well plates (Solmeglas 13118) in RPMI media (Sigma-Aldrich R6504) supplemented with 10% foetal bovine serum (Sigma-Aldrich F7524), Penicillin/Streptomycin solution diluted 1:100 (Gibco 15070-063), and fungizone (Gibco, 15290-018), and allowed to adhere overnight at 37° C. in 5% CO2. Compounds are then added to the cell media from a final concentration of 10 μM in 10-fold serial dilutions and the cells are incubated at 37° C. in 5% CO2. Every three days the medium is changed by fresh medium and compounds are added again. After 11 days, colonies are washed with PBS and fixed in 0.5% crystal violet (Sigma-Aldrich Ref. V5265), 6% glutaraldehide (Sigma-Aldrich Ref. G5882) for 30 minutes. After extensive washing, colonies are dissolved in 2 ml of 10% glacial acetic acid (Sigma-Aldrich Ref. 537020) and absorbance at 590 nm is measured in the Victor 1420 Multilabel Counter (Perkin Elmer). The absorbance in cells treated with DMSO is taken as hundred percent of proliferation. The percentage of proliferation is finally plotted against concentration for each compound and EC50s for colony formation inhibition are calculated using ActivityBase from IDBS.

SW620 = assay: Combination assay, SW620; format: cell-based, human
Procedure, shortened: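 Cells treated with example compounds combined with chemotherapeutic agents, proliferation read by CellTiter-Glo. Combination index from the Chou–Talalay method (CI <0.8 synergy, 0.8–1.2 additivity, >1.2 antagonism); EC50 of the combination also derived alongside single-agent EC50s.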

HCT116 = assay: Combination assay, HCT116; format: cell-based
Description: (§1) The combination index (CI) of combinations of certain example compounds and various chemotherapeutic agents in the CellTitetI-Glo® in vitro cell proliferation assays may be tested. A combination index score is calculated by the Chou and Talalay method (CalcuSyn software, Biosoft). The strength of synergy is scored using the ranking system Chou and Talalay: CI less than 0.8 indicates synergy, CI between 0.8 and 1.2 indicates additivity and CI greater than 1.2 indicates antagonism.
(§2) The EC50 values of representative combinations are also calculated. The individually measured EC50 values of the chemotherapeutic agent and the example compounds are compared to the EC50 value of the combination. The cell lines are characterised by tumor type. Combination assays are performed as described in: “Pim 1 kinase inhibitor ETP-45299 suppresses cellular proliferation and synergizes with PI3K inhibition”. Blanco-Aparicio, Carmen; Collazo, Ana Maria Garcia; Oyarzabal, Julen; Leal, Juan F.; Albaran, Maria Isabel; Lima, Francisco Ramos; Pequeno, Belen; Ajenjo, Nuria; Becerra, Mercedes; Alfonso, Patricia; Reymundo, Maria Isabel; Palacios, Irene; Mateos, Genoveva; Quinones, Helena; Corrionero, Ana; Carnero, Amancio; Pevarello, Paolo; Lopez, Ana Rodriguez; Fominaya, Jesus; Pastor, Joaquin; Bischoff, James R. Cancer Letters (Shannon, Ireland) 2011, 300(2), 145-153

MDAMB231 = assay: Combination assay, MDAMB231; format: cell-based
Description: as §1, §2

A549 = assay: Combination assay, A549; format: cell-based
Description: as §1, §2

SKMEL19 = assay: Combination assay, SKMEL19; format: cell-based
Description: as §1, §2

DU145 = assay: Combination assay, DU145; format: cell-based
Description: as §1
The EC50 values of representative combinations are also calculated. The individually measured EC50 values of the chemotherapeutic agent and the example compounds are compared to the EC50 value of the combination. The cell lines are characterised by tumor type. […] Blanco-Aparicio, Carmen; Collazo, Ana Maria Garcia; Oyarzabal, Julen; Leal, Juan F.; Albaran, Maria Isabel; Lima, Francisco Ramos; Pequeno, Belen; Ajenjo, Nuria; Becerra, Mercedes; Alfonso, Patricia; Reymundo, Maria Isabel; Palacios, Irene; Mateos, Genoveva; Quinones, Helena; Corrionero, Ana; Carnero, Amancio; Pevarello, Paolo; Lopez, Ana Rodriguez; Fominaya, Jesus; Pastor, Joaquin; Bischoff, James R. Cancer Letters (Shannon, Ireland) 2011, 300(2), 145-153

BXPC-3 = assay: Combination assay, BXPC-3; format: cell-based
Description: as §1, §2

[1] = SW620, combination with ABT-751
[2] = SW620, combination with Alisertib
[3] = SW620, combination with Crizotinib
[4] = SW620, combination with Elesclomol
[5] = SW620, combination with Oxaliplatin
[6] = HCT116, combination with Alisertib
[7] = HCT116, combination with Crizotinib
[8] = MDAMB231, combination with Elesclomol
[9] = A549, combination with Elesclomol
[10] = SKMEL19, combination with Crizotinib
[11] = SKMEL19, combination with Elesclomol
[12] = DU145, combination with Alisertib
[13] = DU145, combination with Crizotinib
[14] = BXPC-3, combination with Crizotinib
[15] = BXPC-3, combination with Elesclomol

Compound: CCn1c(C(N)=O)cc2c1-c1ccncc1OC2(C)C [Example 43]
- EC50 (SW620 cells; Homo sapiens, SW-620, 264 h, read-out: mean EC50, colony forming assay): 51 ± 69 nM
- effect in colony forming assay (SW620 cells): dose-dependent effect
- GI50 (SW620; Homo sapiens, SW-620, SW620, example compound alone, read-out: CDK8 inh GI50): 4 µM
- Combination index (CI) (SW620; [1]): 0.18
- Synergy (SW620; [1]): +++ (0.1 < CI < 0.3 (+++))
- Combination index (CI) (SW620; [2]): 0.52
- Synergy (SW620; [2]): ++ (0.3 < CI < 0.7 (++))
- Combination index (CI) (SW620; [3]): 0.65
- Synergy (SW620; [3]): ++ (0.3 < CI < 0.7 (++))
- Combination index (CI) (SW620; [4]): 0.05
- Synergy (SW620; [4]): ++++ (CI < 0.1 (++++))
- Combination index (CI) (SW620; [5]): 0.53
- Synergy (SW620; [5]): ++ (0.3 < CI < 0.7 (++))
- Combination index (CI) (SW620; SW620, combination with Taxol): 0.28
- Synergy (SW620; SW620, combination with Taxol): +++ (0.1 < CI < 0.3 (+++))
- Combination index (CI) (HCT116; [6]): 0.64
- Synergy (HCT116; [6]): ++ (0.3 < CI < 0.7 (++))
- Combination index (CI) (HCT116; [7]): 0.58
- Synergy (HCT116; [7]): ++ (0.3 < CI < 0.7 (++))
- Combination index (CI) (HCT116; HCT116, combination with Taxol): 0.63
- Synergy (HCT116; HCT116, combination with Taxol): ++ (0.3 < CI < 0.7 (++))
- GI50 (HCT116; Homo sapiens, HCT-116, HCT116, example compound alone, read-out: CDK8 inh GI50): 5 µM
- GI50 (MDAMB231; Homo sapiens, MDA-MB-231, MDAMB231, example compound alone, read-out: CDK8 inh GI50): 5 µM
- Combination index (CI) (MDAMB231; [8]): 0.59
- Synergy (MDAMB231; [8]): ++ (0.3 < CI < 0.7 (++))
- Combination index (CI) (A549; [9]): 0.63
- Synergy (A549; [9]): ++ (0.3 < CI < 0.7 (++))
- GI50 (A549; Homo sapiens, A549, example compound alone, read-out: CDK8 inh GI50): 5 µM
- GI50 (SKMEL19; Homo sapiens, SK-MEL19, SKMEL19, example compound alone, read-out: CDK8 inh GI50): 1250 nM
- Combination index (CI) (SKMEL19; [10]): 0.55
- Synergy (SKMEL19; [10]): ++ (0.3 < CI < 0.7 (++))
- Combination index (CI) (SKMEL19; [11]): 0.49
- Synergy (SKMEL19; [11]): ++ (0.3 < CI < 0.7 (++))
- Combination index (CI) (DU145; [12]): 0.65
- Synergy (DU145; [12]): ++ (0.3 < CI < 0.7 (++))
- Combination index (CI) (DU145; [13]): 0.44
- Synergy (DU145; [13]): ++ (0.3 < CI < 0.7 (++))
- Combination index (CI) (DU145; DU145, combination with Taxol): 0.21
- Synergy (DU145; DU145, combination with Taxol): +++ (0.1 < CI < 0.3 (+++))
- GI50 (DU145; Homo sapiens, DU-145, DU145, example compound alone, read-out: CDK8 inh GI50): 5 µM
- Combination index (CI) (BXPC-3; [14]): 0.72
- Synergy (BXPC-3; [14]): ++ (0.3 < CI < 0.7 (++))
- Combination index (CI) (BXPC-3; [15]): 0.25
- Synergy (BXPC-3; [15]): ++ (0.3 < CI < 0.7 (++))
- GI50 (BXPC-3; Homo sapiens, BXPC-3, example compound alone, read-out: CDK8 inh GI50): 5 µM
